From ChEMBL document CHEMBL1154665, “Novel compounds designed as antistress agents” (J Med Chem, 2009) come the findings set out here.

Experiment [1] deals with Brain. Put plainly: Antioxidant activity in rat brain homogenate assessed as malondialdehyde release. It is filed as functional, tissue-based.
The test system of experiment [2] is Rattus norvegicus. Briefly: Antistress activity against food and water deprivation-induced stress in rat assessed as change in body weight at 0.055 mmol/kg, ip after 3 hrs. It is filed as functional.
For experiment [3], the system named is Rattus norvegicus. Briefly: Antistress activity against food and water deprivation-induced stress in rat assessed as increase in thymus weight measured per 100 gm of body weight at 0.055 mmol/kg, ip after 3 hrs. Type of experiment: functional.
Experiment [4] concerns Rattus norvegicus. Briefly: Antistress activity against food and water deprivation-induced stress in rat assessed as decrease in uropepsinogen level in urine at 0.055 mmol/kg, ip after 3 hrs. Type of experiment: functional.
Experiment [5] has as its system Rattus norvegicus. Put plainly: Antihyperlipidemic activity in triton WR 1339 treated rat assessed as triglyceride at 56 umol/kg, ip measured after 24 hrs. Type of experiment: functional.
The test system of experiment [6] is Rattus norvegicus. Put plainly: Antistress activity against food and water deprivation-induced stress in rat assessed as increase in adrenal weight measured per 100 gm of body weight at 0.055 mmol/kg, ip after 3 hrs. Type of experiment: functional.
The subject of experiment [7] is Rattus norvegicus. Briefly: Antihyperlipidemic activity in triton WR 1339 treated rat assessed as LDL-cholesterol at 56 umol/kg, ip measured after 24 hrs. It is filed as functional.
The species entered for experiment [8] is Rattus norvegicus. Put plainly: Antistress activity in rat assessed as decrease in stress-induced oxidative N-demethylation of erythromycin. Type of experiment: functional. Also noted: scale not given: the % may be the effect or the level left.
For experiment [9], the species on record is Rattus norvegicus. Put plainly: Antistress activity in rat assessed as decrease in stress-induced hepatic cytochrome P450 level by spectroscopically. Type of experiment: functional. Also noted: scale not given: the % may be the effect or the level left.
Experiment [10] relates to Rattus norvegicus. Briefly: Antistress activity against food and water deprivation-induced stress in rat assessed as reduction in malondialdehyde formation at 0.055 mmol/kg, ip after 3 hrs. Type of experiment: functional.
For experiment [11], the system named is Rattus norvegicus. Briefly: Antistress activity against food and water deprivation-induced stress in rat assessed as increase in liver weight measured per 100 gm of body weight at 0.055 mmol/kg, ip after 3 hrs. It is filed as functional.
Experiment [12] concerns Rattus norvegicus. Briefly: Antihyperlipidemic activity in triton WR 1339 treated rat assessed as plasma total cholesterol at 56 umol/kg, ip measured after 24 hrs. Type of experiment: functional.

What is called IC50 is the concentration needed to halve the response being measured. As to `CC(C)(C)c1cc(C(=O)O)cc(C(C)(C)C)c1O`, the IC50 in experiment [1] was 257 µM.

For the compound `Cc1c(C)c2c(c(C)c1O)CC[C@](C)(C(=O)NCCCC(=O)OC1N=C(c3ccccc3Cl)c3cc(Cl)ccc3NC1=O)O2` (some centres undefined), the Activity was -10% in experiment [2]; 117 mg in experiment [3]; 34 kiloU/hr in [4]; 40% in experiment [5]; 34 mg in experiment [6]; 40% in [7]. The Activity is listed as 40% in experiment [8]; 35% in experiment [9]; 37.5 nmol/mg in experiment [10]; 4.2 mg in [11]; 40% in [12]. In experiment [1], the half-inhibitory concentration (IC50) was 1.1 µM.

For the compound `CC(C)(C)c1cc(C(=O)NCCCC(=O)OC2N=C(c3ccccc3Cl)c3cc(Cl)ccc3NC2=O)cc(C(C)(C)C)c1O` (centres undefined), the Activity was -3.8% in experiment [2]; 151 mg in experiment [3]; 30 kiloU/hr in experiment [4]; 40% in [5]; 40 mg in experiment [6]; 40% in [7]. The Activity in [10] was found to be 41.2 nmol/mg; in experiment [11], 4.5 mg; in experiment [12], 40%. Further, the IC50 in [1] was 24 µM.

As for `Cc1c(C)c2c(c(C)c1O)CC[C@](C)(C(=O)O)O2` [(R)-TROLOX], in experiment [1], the 50% inhibitory concentration (IC50) turned out to be 25 µM.
